Tests used:
[1] = tested on: WT NHE7 transfected cells; test: Endocytosis kinetics: Alexa 555 transferrin uptake in cells expressing NHE7 in intracellular compartments; type: cell-based; conditions: different concentrations of zoniporide, five minutes of incubation, figure 2
Experimental: […] Alexa 555 transferrin (Invitrogen) was bound for various times at 37°C on WT NHE7 transfected cells (that express NHE7 specifically in intracellular compartments) in control conditions or in the presence of zoniporide at the defined concentrations. After five minutes of incubation, the coverslips were rapidly rinsed in ice-cold PBS and the cells were fixed in ice-cold 4% PFA and then permeabilized with 2% saponin. The nuclei were then stained with DAPI. These different steps rinse the transferrin, which has not been internalized, and stop intracellular traffic. This makes it possible to visualize the endocytosis at different times. The coverslips were then mounted and photographed for image analysis and quantification. […] Endocytosis was quantified as the normalized fluorescence accumulation in intracellular clusters as a function of time using a home-made macro (Mica Imaging platform, Nice) on Image J NIH ImageJ (Schneider, C. A.; Rasband, W. S. & Eliceiri, K. W. (2012), "NIH Image to ImageJ: 25 years of image analysis", Nature methods 9(7): 671-675). […] Then, all the clusters of red pixels (Alexa transferrin 555) with a density, a shape and a surface defined by the macro (and parameterizable by the user) are quantified inside each mask. […]

NHE7 [2] = molecular target: T1, NHE7 (Homo sapiens, UniProt Q96T83); test: Lithium uptake in PM-NHE7 cells (atomic absorption spectroscopy), dose-response of inhibitors; type: cell-based; conditions: for Ki: calculated from dose-response curves of lithium uptake, 3 to 10 mM LiCl, initial velocity conditions; for affinity to NHE7 / selectivity of affinity NHE7 compare to NHE1: statement in words; for affinity to NHE7: from dose-response curves (figure 1) and table 1; for selectivity of affinity NHE7 compare to NHE1: from table 1
T1 construct: expressed in transfected cells
T1 sequence (Q96T83 1-725): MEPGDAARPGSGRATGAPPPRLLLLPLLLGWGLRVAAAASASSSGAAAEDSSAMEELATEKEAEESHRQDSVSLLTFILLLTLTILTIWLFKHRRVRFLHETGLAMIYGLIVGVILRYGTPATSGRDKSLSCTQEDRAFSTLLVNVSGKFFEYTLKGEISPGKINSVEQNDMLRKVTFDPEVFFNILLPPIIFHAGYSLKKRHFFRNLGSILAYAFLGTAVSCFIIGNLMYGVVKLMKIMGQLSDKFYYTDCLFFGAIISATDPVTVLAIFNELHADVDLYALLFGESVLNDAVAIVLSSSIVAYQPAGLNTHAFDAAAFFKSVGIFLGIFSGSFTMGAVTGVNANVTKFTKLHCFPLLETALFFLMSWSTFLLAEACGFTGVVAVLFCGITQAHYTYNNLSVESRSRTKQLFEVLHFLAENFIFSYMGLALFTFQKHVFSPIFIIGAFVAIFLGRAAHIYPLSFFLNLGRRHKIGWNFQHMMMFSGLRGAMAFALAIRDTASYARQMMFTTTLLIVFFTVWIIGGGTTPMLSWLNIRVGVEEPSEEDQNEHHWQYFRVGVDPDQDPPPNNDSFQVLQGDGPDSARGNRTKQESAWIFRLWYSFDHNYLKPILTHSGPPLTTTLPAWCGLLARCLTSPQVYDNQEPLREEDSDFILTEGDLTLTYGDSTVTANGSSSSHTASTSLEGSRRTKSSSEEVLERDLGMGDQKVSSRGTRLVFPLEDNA
Experimental: The PM-NHE7 cells selected for NHE7 expression at the plasma membrane (Milosavljevic N, Monet M, Léna I, Brau F, Lacas-Gervais S, Feliciangeli S, Counillon L, Poet M., The intracellular Na(+)/H(+) exchanger NHE7 effects a Na(+)-coupled, but not K(+)-coupled proton-loading mechanism in endocytosis. Cell rep. 7, 1-8, May 8, 2014, 689-696) were seeded to confluence on 24-well plates and incubated for 60 minutes at 37°C in a medium containing 50 mM NH4Cl , 70mM Choline Chloride, 2 mM CaCl2, 1 mM MgCl2, 5 mM glucose, 15 mM Hepes (pH 7.4). The cells were then rinsed twice in less than 15 seconds with 120 mM choline chloride buffered to pH 7.4 with 15 mM Tris, 1 mM MgCl2, 2 mM CaCl2. The uptake of lithium was then started by adding the same medium containing 3 to 10 mM LiCl and the various inhibitor concentrations. Under these conditions, Lithium uptake is linear. All dose-response curves for the inhibitors tested in this study were therefore measured under initial velocity conditions in which equation (1) applies. At the end of the uptake time the cells were rinsed rapidly (4 rinses in less than 10 seconds) in PBS at 4° C. 250µl of 25% nitric acid were added per well. The cell contents were then transferred into eppendorf tubes. The tubes were centrifuged for 5 min at 13000 rpm at room temperature. The supernatant is used to measure the activity of NHE7 (or NHE1 in control) by measuring intracellular the Li^+ concentrations (which are due to NHE7 transport) by atomic absorption spectroscopy. (Thermo ICE 3000 Series AA Spectrometer). Data obtained from the uptake measurements were used to plot the dose responses curves i.e. the % of maximal lithium uptake as a function of the inhibitors concentrations (Log scale, figure 1).
Because acylguanidines are competitive inhibitors of NHE7, the dose response curves of different concentrations of inhibitors on the rate of transport are given by equation (1) below: V = Vmax[Li^(*)]/(Kmapp+[Li^+]); With Kmapp = Km(1 + [I]/Ki] [formula] • where [I] is the inhibitor concentration, • Vmax is the maximum speed of the exchanger, expressed in (100)% in the dose response curves, • Km is the value of the Michaelis constant for Lithium (see Milosavljevic et al., Cell rep. 7, 1-8, May 8, 2014, 689-696 for NHE7) • Ki the dissociation constant for the inhibitor under consideration.
It is simple to obtain a linear equation by plotting the Maximal rate (w/o inhibitor) versus the rates in the presence of inhibitor, as a function of the inhibitor concentration. The slope is then proportional to 1/Ki. Table 1: Ki of the tested inhibitors

NHE1 = NHE1 (Homo sapiens, UniProt P19634); test: Lithium uptake measurement, NHE1 control; type: cell-based; conditions: for Ki: calculated from dose-response curves of lithium uptake; for Km: Michaelis constant of the cation for the exchanger
Experimental: The uptake of lithium was then started by adding the same medium containing 3 to 10 mM LiCl and the various inhibitor concentrations. […] At the end of the uptake time the cells were rinsed rapidly (4 rinses in less than 10 seconds) in PBS at 4° C. 250µl of 25% nitric acid were added per well. The cell contents were then transferred into eppendorf tubes. The tubes were centrifuged for 5 min at 13000 rpm at room temperature. The supernatant is used to measure the activity of NHE7 (or NHE1 in control) by measuring intracellular the Li^+ concentrations (which are due to NHE7 transport) by atomic absorption spectroscopy. (Thermo ICE 3000 Series AA Spectrometer). Data obtained from the uptake measurements were used to plot the dose responses curves i.e. the % of maximal lithium uptake as a function of the inhibitors concentrations (Log scale, figure 1).
It is simple to obtain a linear equation by plotting the Maximal rate (w/o inhibitor) versus the rates in the presence of inhibitor, as a function of the inhibitor concentration. […] Table 1: Ki of the tested inhibitors

NHE7 [3] = molecular target: T1, NHE7; conditions: Michaelis constant of the cation for the exchanger; cited from earlier work

Sequence of NHE1 (P19634 whole entry, species assumed): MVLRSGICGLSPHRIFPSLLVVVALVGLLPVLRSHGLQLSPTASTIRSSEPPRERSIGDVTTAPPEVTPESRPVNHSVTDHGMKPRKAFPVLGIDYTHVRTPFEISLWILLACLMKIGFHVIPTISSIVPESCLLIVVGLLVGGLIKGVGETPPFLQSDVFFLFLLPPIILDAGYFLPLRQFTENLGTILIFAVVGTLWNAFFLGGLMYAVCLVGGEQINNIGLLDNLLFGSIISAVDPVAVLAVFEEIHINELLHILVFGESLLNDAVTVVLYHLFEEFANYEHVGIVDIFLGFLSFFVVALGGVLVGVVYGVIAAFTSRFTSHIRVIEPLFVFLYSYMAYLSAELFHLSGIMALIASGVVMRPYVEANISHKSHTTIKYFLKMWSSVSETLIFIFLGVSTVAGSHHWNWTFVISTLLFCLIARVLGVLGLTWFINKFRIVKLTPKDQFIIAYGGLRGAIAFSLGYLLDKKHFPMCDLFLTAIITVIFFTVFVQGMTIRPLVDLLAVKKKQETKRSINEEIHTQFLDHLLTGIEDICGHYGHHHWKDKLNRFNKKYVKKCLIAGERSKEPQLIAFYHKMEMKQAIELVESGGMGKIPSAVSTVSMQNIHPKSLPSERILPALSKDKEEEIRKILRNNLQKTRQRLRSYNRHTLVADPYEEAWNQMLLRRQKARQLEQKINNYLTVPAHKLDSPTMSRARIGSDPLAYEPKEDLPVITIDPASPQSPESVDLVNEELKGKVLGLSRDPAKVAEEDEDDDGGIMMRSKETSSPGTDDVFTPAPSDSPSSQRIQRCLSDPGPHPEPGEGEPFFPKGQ

Compound | Ki (NHE7 [2]) | Ki (NHE1) | other results
N=C(N)NC(=O)c1cnn(-c2cccc3ncccc23)c1C1CC1 [Zoniporide, zoniporide] | 3 nM | 20 nM | % of endocytosis [1]: dose-dependent effect; affinity to NHE7 (NHE7 [2]): very good affinity; selectivity of affinity NHE7 compare to NHE1 (NHE7 [2]): selective to NHE7 compare to NHE1
N=C(N)NC(=O)c1nc(Cl)c(N)nc1N [Amiloride, amiloride] | 1640 nM | – | –
[Li+] [Li^+, lithium] | – | – | Km (NHE1): 10 mM; Km (NHE7 [3]): 16 mM
CC(C)c1ccc(C(=O)NC(=N)N)cc1S(C)(=O)=O [Cariporide, cariporide] | 20 nM | 40 nM | –
CCN(c1nc(N)c(C(=O)NC(=N)N)nc1Cl)C(C)C [EIPA, 5N-(ethylisopropyl) amiloride] | 40 nM | 100 nM | –
[Na+] [Na^+, sodium] | – | – | Km (NHE1): 30 mM
N=C(N)NC(=O)c1nc(Cl)c(N2CCCCCC2)nc1N [HMA, hexamethyl-amiloride] | 80 nM | 20 nM | –
Cc1cc(-n2cccc2)c(S(C)(=O)=O)cc1C(=O)NC(=N)N [Eniporide, eniporide] | 2.5 nM | 40 nM | affinity to NHE7 (NHE7 [2]): very good affinity; selectivity of affinity NHE7 compare to NHE1 (NHE7 [2]): selective to NHE7 compare to NHE1
CN(C)c1nc(N)c(C(=O)NC(=N)N)nc1Cl [DMA, dimethyl-amiloride] | 170 nM | 100 nM | –
